Source: patent US11542240B2, “STK19 inhibitors for treatment of cancer” (TRUSTEES OF BOSTON UNIVERSITY, priority 2018, dated 2023)

Key:
Test in all cases: biochemical
Assay type in all cases: binding
[1] = biological target: panel of 468 diverse kinases (Homo sapiens, UniProt O00238); details: BMPR1B; 1000 nM; read-out: Percent Control
[2] = biological target: panel of 468 diverse kinases (Homo sapiens, UniProt O15111); details: IKK-alpha; 1000 nM; read-out: Percent Control
[3] = biological target: panel of 468 diverse kinases (Homo sapiens, UniProt O43683); details: BUB1; 1000 nM; read-out: Percent Control
[4] = biological target: panel of 468 diverse kinases (Homo sapiens, UniProt P00519, Y253F); details: ABL1(Y253F)-phosphorylated; 1000 nM; read-out: Percent Control
[5] = biological target: panel of 468 diverse kinases (Homo sapiens, UniProt P00533, G719C); details: EGFR(G719C); 1000 nM; read-out: Percent Control
[6] = biological target: panel of 468 diverse kinases (Homo sapiens, UniProt P07332); details: FES; 1000 nM; read-out: Percent Control
[7] = biological target: panel of 468 diverse kinases (Homo sapiens, UniProt P08581, Y1235D); details: MET(Y1235D); 1000 nM; read-out: Percent Control
[8] = biological target: panel of 468 diverse kinases (Homo sapiens, UniProt P09769); details: FGR; 1000 nM; read-out: Percent Control
[9] = biological target: panel of 468 diverse kinases (Homo sapiens, UniProt P10721, D816H); details: KIT(D816H); 1000 nM; read-out: Percent Control
[10] = biological target: panel of 468 diverse kinases (Homo sapiens, UniProt P10721, D816V); details: KIT(D816V); 1000 nM; read-out: Percent Control
[11] = biological target: panel of 468 diverse kinases (Homo sapiens, UniProt P21127); details: CDC2L1; 1000 nM; read-out: Percent Control
[12] = biological target: panel of 468 diverse kinases (Homo sapiens, UniProt P22694); details: PKAC-beta; 1000 nM; read-out: Percent Control
[13] = biological target: panel of 468 diverse kinases (Homo sapiens, UniProt P30530); details: AXL; 1000 nM; read-out: Percent Control
[14] = biological target: panel of 468 diverse kinases (Homo sapiens, UniProt P32298); details: GRK4; 1000 nM; read-out: Percent Control
[15] = biological target: panel of 468 diverse kinases (Homo sapiens, UniProt P36897); details: TGFBR1; 1000 nM; read-out: Percent Control
[16] = biological target: panel of 468 diverse kinases (Homo sapiens, UniProt P42336, I800L); details: PIK3CA(I800L); 1000 nM; read-out: Percent Control
[17] = biological target: panel of 468 diverse kinases (Homo sapiens, UniProt P42681); details: TXK; 1000 nM; read-out: Percent Control
[18] = biological target: panel of 468 diverse kinases (Homo sapiens, UniProt P49759); details: CLK1; 1000 nM; read-out: Percent Control
[19] = biological target: panel of 468 diverse kinases (Homo sapiens, UniProt P68400); details: CSNK2A1; 1000 nM; read-out: Percent Control
[20] = biological target: panel of 468 diverse kinases (Homo sapiens, UniProt Q13043); details: MST1; 1000 nM; read-out: Percent Control
[21] = biological target: panel of 468 diverse kinases (Homo sapiens, UniProt Q13555); details: CAMK2G; 1000 nM; read-out: Percent Control
[22] = biological target: panel of 468 diverse kinases (Homo sapiens, UniProt Q15208); details: NDR1; 1000 nM; read-out: Percent Control
[23] = biological target: panel of 468 diverse kinases (Homo sapiens, UniProt Q16832); details: DDR2; 1000 nM; read-out: Percent Control
[24] = biological target: panel of 468 diverse kinases (Homo sapiens, UniProt Q2M2I8); details: AAK1; 1000 nM; read-out: Percent Control
[25] = biological target: panel of 468 diverse kinases (Homo sapiens, UniProt Q8IU85); details: CAMK1D; 1000 nM; read-out: Percent Control
[26] = biological target: panel of 468 diverse kinases (Homo sapiens, UniProt Q8IWQ3); details: BRSK2; 1000 nM; read-out: Percent Control
[27] = biological target: panel of 468 diverse kinases (Homo sapiens, UniProt Q96Q40); details: PFTAIRE2; 1000 nM; read-out: Percent Control
[28] = biological target: panel of 468 diverse kinases (Homo sapiens, UniProt Q9H4A3); details: WNK1; 1000 nM; read-out: Percent Control
[29] = biological target: panel of 468 diverse kinases (Homo sapiens, UniProt Q9UF33); details: EPHA6; 1000 nM; read-out: Percent Control
[30] = biological target: panel of 468 diverse kinases (Mycobacterium tuberculosis, UniProt P9WI81); details: read-out: Percent Control
[31] = biological target: panel of 468 diverse kinases (Plasmodium falciparum, UniProt P62344); details: read-out: Percent Control

Sequence of panel of 468 diverse kinases (Homo sapiens, UniProt Q9UF33) (Q9UF33 23-1036 limits assumed): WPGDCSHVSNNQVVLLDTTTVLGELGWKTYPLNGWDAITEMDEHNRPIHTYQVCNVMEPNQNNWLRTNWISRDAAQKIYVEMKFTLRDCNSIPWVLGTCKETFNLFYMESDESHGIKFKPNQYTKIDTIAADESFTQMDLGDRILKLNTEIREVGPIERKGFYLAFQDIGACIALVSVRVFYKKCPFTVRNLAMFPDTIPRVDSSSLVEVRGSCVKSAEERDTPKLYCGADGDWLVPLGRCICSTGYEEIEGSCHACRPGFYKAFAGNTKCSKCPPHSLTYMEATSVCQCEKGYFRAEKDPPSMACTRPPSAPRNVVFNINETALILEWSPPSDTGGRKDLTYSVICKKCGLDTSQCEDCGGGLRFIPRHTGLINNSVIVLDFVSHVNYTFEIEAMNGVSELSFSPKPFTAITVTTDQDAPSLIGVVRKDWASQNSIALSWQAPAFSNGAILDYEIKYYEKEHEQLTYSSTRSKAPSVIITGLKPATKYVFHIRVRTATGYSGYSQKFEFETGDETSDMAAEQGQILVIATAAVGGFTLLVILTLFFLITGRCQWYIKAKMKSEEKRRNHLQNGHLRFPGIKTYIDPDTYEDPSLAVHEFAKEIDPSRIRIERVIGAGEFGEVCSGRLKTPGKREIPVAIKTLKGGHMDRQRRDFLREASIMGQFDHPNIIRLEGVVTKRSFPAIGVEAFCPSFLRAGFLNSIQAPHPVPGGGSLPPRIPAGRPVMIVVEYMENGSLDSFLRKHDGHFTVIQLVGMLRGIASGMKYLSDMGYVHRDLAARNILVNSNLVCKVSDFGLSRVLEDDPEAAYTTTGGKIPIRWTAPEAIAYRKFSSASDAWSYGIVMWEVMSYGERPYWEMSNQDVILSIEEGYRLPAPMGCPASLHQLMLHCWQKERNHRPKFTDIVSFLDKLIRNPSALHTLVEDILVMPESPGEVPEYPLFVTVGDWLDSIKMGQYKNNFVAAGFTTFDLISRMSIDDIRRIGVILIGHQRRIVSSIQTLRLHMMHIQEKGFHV
Sequence of panel of 468 diverse kinases (Homo sapiens, UniProt P10721, D816V) (P10721 26-976 D816V limits assumed): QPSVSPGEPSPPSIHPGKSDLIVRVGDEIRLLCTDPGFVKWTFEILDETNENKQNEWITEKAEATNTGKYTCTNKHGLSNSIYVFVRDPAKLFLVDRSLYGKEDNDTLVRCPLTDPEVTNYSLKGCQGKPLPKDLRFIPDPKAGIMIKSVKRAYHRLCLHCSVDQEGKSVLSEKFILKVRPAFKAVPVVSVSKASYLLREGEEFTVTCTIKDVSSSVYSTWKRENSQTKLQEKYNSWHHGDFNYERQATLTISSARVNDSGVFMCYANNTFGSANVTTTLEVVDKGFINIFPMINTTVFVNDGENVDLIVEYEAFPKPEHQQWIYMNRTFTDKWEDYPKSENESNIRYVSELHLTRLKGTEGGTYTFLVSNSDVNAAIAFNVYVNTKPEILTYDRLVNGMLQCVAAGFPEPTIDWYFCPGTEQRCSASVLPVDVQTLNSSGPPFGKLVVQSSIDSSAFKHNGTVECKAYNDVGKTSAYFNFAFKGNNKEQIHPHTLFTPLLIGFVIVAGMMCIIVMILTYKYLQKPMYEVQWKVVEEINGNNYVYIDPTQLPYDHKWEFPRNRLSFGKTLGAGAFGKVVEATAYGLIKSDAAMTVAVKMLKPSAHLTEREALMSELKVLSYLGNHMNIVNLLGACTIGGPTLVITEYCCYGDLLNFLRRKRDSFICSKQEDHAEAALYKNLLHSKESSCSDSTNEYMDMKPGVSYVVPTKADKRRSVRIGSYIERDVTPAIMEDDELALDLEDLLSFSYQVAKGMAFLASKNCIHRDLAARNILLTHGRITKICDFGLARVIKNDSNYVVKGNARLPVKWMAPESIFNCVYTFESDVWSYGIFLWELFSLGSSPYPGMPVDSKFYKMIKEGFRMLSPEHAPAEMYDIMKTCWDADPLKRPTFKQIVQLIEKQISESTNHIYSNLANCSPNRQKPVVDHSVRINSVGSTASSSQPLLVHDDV
Sequence of panel of 468 diverse kinases (Homo sapiens, UniProt P08581, Y1235D) (P08581 25-1390 Y1235D limits assumed): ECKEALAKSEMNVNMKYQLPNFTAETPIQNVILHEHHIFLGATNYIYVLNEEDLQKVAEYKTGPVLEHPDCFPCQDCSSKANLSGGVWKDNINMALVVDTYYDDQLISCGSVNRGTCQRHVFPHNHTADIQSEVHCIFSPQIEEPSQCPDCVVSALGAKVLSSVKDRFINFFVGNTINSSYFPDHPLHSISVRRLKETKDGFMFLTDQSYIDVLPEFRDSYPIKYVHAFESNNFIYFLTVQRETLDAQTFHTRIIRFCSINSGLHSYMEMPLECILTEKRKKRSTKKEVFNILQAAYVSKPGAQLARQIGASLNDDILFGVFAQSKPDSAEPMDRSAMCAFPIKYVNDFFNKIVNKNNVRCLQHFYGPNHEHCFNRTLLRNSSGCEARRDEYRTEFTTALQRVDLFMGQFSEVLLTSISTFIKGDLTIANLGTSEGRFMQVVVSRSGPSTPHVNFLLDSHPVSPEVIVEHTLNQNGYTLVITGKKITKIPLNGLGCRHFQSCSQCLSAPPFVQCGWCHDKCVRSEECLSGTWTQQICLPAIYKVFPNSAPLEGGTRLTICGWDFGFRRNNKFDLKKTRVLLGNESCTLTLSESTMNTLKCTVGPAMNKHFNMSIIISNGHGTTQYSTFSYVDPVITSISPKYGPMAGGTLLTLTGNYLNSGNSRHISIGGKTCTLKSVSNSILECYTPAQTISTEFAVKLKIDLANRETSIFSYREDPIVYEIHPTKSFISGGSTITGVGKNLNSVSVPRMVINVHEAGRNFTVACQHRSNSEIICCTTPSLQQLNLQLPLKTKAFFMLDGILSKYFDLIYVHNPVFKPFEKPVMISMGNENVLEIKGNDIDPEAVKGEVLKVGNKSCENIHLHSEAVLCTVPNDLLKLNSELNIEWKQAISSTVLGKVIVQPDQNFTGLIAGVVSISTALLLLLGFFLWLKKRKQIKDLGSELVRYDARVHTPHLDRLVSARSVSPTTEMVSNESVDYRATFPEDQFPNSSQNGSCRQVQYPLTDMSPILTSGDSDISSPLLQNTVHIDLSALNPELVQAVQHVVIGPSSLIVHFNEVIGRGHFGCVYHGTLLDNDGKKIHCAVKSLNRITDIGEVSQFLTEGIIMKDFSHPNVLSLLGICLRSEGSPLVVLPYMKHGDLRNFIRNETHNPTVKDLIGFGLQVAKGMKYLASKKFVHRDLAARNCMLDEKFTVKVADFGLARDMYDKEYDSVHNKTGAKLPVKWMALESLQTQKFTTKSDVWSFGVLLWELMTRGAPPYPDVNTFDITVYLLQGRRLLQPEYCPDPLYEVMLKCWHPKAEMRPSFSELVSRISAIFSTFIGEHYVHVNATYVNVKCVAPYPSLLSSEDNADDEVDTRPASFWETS
Sequence of panel of 468 diverse kinases (Homo sapiens, UniProt O00238) (O00238 14-502 limits assumed): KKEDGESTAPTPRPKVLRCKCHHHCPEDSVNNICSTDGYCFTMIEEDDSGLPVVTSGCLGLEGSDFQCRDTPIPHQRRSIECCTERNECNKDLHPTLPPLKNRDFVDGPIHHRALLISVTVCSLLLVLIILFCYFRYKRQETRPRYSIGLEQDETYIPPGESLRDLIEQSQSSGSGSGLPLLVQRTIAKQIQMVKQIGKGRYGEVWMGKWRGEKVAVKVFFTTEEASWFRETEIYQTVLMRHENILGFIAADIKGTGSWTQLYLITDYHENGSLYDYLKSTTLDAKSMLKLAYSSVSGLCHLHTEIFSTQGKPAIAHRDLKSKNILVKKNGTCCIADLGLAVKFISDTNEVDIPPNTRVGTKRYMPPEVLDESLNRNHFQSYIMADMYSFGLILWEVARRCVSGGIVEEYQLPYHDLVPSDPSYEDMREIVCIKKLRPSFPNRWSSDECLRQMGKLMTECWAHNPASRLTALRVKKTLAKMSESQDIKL
Sequence of panel of 468 diverse kinases (Homo sapiens, UniProt Q15208) (Q15208 2-465 limits assumed): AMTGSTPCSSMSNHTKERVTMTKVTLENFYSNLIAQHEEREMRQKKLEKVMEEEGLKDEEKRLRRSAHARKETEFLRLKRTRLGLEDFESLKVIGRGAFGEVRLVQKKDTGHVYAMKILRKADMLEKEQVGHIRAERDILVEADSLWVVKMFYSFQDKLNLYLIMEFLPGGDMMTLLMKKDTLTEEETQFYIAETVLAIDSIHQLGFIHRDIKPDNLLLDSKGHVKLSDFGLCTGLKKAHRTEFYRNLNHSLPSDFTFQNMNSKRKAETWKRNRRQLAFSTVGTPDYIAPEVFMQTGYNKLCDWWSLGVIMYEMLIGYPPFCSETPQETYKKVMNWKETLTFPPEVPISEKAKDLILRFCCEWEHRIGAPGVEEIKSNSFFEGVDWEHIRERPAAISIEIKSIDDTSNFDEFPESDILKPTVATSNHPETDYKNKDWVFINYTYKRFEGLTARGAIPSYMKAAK
Sequence of panel of 468 diverse kinases (Mycobacterium tuberculosis, UniProt P9WI81) (P9WI81 2-626 limits assumed): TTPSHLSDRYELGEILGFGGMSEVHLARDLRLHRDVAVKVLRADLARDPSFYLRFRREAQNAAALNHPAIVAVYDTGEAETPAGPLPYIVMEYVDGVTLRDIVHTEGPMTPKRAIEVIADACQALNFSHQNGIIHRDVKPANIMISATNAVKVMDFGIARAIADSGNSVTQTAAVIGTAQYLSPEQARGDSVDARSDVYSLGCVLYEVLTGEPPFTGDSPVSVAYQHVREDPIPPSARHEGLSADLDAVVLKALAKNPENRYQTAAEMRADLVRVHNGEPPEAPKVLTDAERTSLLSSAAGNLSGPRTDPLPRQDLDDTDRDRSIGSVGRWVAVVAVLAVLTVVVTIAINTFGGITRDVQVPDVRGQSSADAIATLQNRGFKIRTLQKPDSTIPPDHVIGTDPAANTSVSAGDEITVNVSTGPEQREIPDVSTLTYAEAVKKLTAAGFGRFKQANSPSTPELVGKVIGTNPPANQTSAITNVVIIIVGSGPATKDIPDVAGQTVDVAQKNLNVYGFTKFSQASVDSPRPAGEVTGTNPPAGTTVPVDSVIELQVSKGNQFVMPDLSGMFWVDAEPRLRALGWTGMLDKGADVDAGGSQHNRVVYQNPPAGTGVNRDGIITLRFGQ
Sequence of panel of 468 diverse kinases (Homo sapiens, UniProt P10721, D816H) (P10721 26-976 D816H limits assumed): as the sequence (P10721 26-976 D816V limits assumed) above, with V791H counted along it

## COc1cc2nc(NC3CC3)nc(NC3CCN(C(C)C)CC3)c2cc1OC [Formula IV]
[1]
  remaining activity at 1 µM: 55%
[2]
  remaining activity at 1 µM: 80%
[3]
  remaining activity at 1 µM: 63%
[4]
  remaining activity at 1 µM: 100%
[5]
  remaining activity at 1 µM: 91%
[6]
  remaining activity at 1 µM: 100%
[7]
  remaining activity at 1 µM: 93%
[8]
  remaining activity at 1 µM: 100%
[9]
  remaining activity at 1 µM: 78%
[10]
  remaining activity at 1 µM: 100%
[11]
  remaining activity at 1 µM: 100%
[12]
  remaining activity at 1 µM: 96%
[13]
  remaining activity at 1 µM: 94%
[14]
  remaining activity at 1 µM: 100%
[15]
  remaining activity at 1 µM: 82%
[16]
  remaining activity at 1 µM: 94%
[17]
  remaining activity at 1 µM: 98%
[18]
  remaining activity at 1 µM: 96%
[19]
  remaining activity at 1 µM: 61%
[20]
  remaining activity at 1 µM: 84%
[21]
  remaining activity at 1 µM: 100%
[22]
  remaining activity at 1 µM: 81%
[23]
  remaining activity at 1 µM: 66%
[24]
  remaining activity at 1 µM: 91%
[25]
  remaining activity at 1 µM: 100%
[26]
  remaining activity at 1 µM: 100%
[27]
  remaining activity at 1 µM: 90%
[28]
  remaining activity at 1 µM: 59%
[29]
  remaining activity at 1 µM: 100%
[30]
  remaining activity at 1 µM: 62%
[31]
  remaining activity at 1 µM: 56%
